The source of these data is patent publication US20260258064A1 (SIRONAX LTD., priority 2023, published 2026).

The test concerns the target T1, SARM1 (50-724) (Homo sapiens, UniProt Q6SZW1).
T1 construct: Purified SARM1 (50-724) with a final concentration of 2 nM was pre-incubated with a test compound
T1 sequence (Q6SZW1 50-724): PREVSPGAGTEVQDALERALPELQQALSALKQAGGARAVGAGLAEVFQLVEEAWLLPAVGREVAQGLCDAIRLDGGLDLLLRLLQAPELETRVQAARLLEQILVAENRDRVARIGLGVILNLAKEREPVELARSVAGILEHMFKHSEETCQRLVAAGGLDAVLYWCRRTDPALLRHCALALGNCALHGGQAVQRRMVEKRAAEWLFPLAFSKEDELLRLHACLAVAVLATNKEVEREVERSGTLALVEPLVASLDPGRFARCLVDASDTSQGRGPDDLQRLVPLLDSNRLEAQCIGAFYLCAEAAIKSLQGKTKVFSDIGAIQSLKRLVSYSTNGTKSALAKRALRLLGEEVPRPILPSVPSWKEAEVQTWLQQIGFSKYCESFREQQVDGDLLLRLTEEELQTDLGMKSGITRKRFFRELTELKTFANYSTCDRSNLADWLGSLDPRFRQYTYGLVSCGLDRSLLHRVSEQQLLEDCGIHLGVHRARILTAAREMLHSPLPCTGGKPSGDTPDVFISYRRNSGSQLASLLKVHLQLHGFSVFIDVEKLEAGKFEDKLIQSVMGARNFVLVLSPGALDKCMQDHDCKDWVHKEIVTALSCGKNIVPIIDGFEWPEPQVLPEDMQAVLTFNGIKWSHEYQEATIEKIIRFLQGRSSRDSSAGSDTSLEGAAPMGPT
As to the kind of experiment: SARM1 (50-724) enzymatic assay (LC-MS/MS). The class given is biochemical. The settings on record: Purified SARM1 (50-724) 2 nM, NMN as activator, NAD+ as substrate, 1 h at room temperature, read-out: IC50 (SARM1 inhibitory activity). An outline of the steps:
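Reaction buffer was Dulbecco's PBS. Compound and 2 nM human SARM1 (50-724) were pre-incubated 15 min at room temperature, then […] NAD^+ and 200 µM NMN activator were added for 1 h at room temperature. Acetonitrile (70%) stop, LC-MS/MS read-out, IC50 values.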
As for `Fc1cccc(-n2nccc2-c2nc3cc(C(F)(F)F)ccc3[nH]2)c1Cl` [Compound 443, 2-(1-(2-chloro-3-fluorophenyl)-1H-pyrazol-5-yl)-5-(trifluoromethyl)-1H-benzo[d]imidazole], the IC50 was in the range of 100 to 500 nM.
On to `CC(c1cccnc1)c1cc(F)c2[nH]c(-c3nncn3-c3cnccc3C(F)(F)F)nc2c1` (stereo not shown) [Compound 444, 7-fluoro-5-(1-(pyridin-3-yl)ethyl)-2-(4-(4-(trifluoromethyl)pyridin-3-yl)-4H-1,2,4-triazol-3-yl)-1H-benzo[d]imidazole], for which the IC50 is ≤ 100 nM.
Under `CC(c1ccncc1)c1cc(F)c2[nH]c(-c3nncn3-c3cnccc3C(F)(F)F)nc2c1` (stereo not shown) [Compound 445, 7-fluoro-5-(1-(pyridin-4-yl)ethyl)-2-(4-(4-(trifluoromethyl)pyridin-3-yl)-4H-1,2,4-triazol-3-yl)-1H-benzo[d]imidazole] stands ≤ 100 nM; under `Fc1cc(Oc2nccs2)cc2nc(-c3nncn3-c3cnccc3C(F)(F)F)[nH]c12` [Compound 446, 2-((7-fluoro-2-(4-(4-(trifluoromethyl)pyridin-3-yl)-4H-1,2,4-triazol-3-yl)-1H-benzo[d]imidazol-5-yl)oxy)thiazole], 100 to 500 nM; under `OC1CCN(c2cc(F)c3[nH]c(-c4nncn4-c4cnccc4C(F)(F)F)nc3c2)C1` (stereo not shown) [Compound 447, 1-(4-fluoro-2-(4-(4-(trifluoromethyl)pyridin-3-yl)-4H-1,2,4-triazol-3-yl)-1H-benzo[d]imidazol-6-yl)pyrrolidin-3-ol], 500 to 1000 nM.
For `CC(C)(N)c1ccc2[nH]c(-c3nncn3-c3cnccc3C(F)(F)F)nc2c1` [Compound 448, 2-[2-[4-[4-(trifluoromethyl)-3-pyridyl]-1,2,4-triazol-3-yl]-1H-benzimidazol-5-yl]propan-2-amine], the IC50 lay within 100 to 500 nM.
Then `FC(F)(F)c1ccc2[nH]c(-c3ccnn3-c3cnccc3C(F)(F)F)nc2c1` [Compound 449, 5-(trifluoromethyl)-2-(1-(4-(trifluoromethyl)pyridin-3-yl)-1H-pyrazol-5-yl)-1H-benzo[d]imidazole], with ≤ 100 nM.
As for `CN(CCC(N)=O)c1cc(F)c2[nH]c(-c3nncn3-c3cnccc3C(F)(F)F)nc2c1` [Compound 450, 3-((4-fluoro-2-(4-(4-(trifluoromethyl)pyridin-3-yl)-4H-1,2,4-triazol-3-yl)-1H-benzo[d]imidazol-6-yl)(methyl)amino)propanamide], the IC50 was ≤ 100 nM.
Take `CN(CCCO)c1cc(F)c2[nH]c(-c3nncn3-c3cnccc3C(F)(F)F)nc2c1` [Compound 451, 3-((4-fluoro-2-(4-(4-(trifluoromethyl)pyridin-3-yl)-4H-1,2,4-triazol-3-yl)-1H-benzo[d]imidazol-6-yl)(methyl)amino)propan-1-ol]: the IC50 is ≤ 100 nM.
With `CCC(=O)c1cc(F)c2[nH]c(-c3nncn3-c3cnccc3C(F)(F)F)nc2c1` [Compound 452, 1-(4-fluoro-2-(4-(4-(trifluoromethyl)pyridin-3-yl)-4H-1,2,4-triazol-3-yl)-1H-benzo[d]imidazol-6-yl)propan-1-one], the IC50 is ≤ 100 nM.
In the case of `CC(NC12CC(C1)C2)c1cc(F)c2[nH]c(-c3nncn3-c3cnccc3C(F)(F)F)nc2c1` (stereo not shown) [Compound 453, N-(1-(7-fluoro-2-(4-(4-(trifluoromethyl)pyridin-3-yl)-4H-1,2,4-triazol-3-yl)-1H-benzo[d]imidazol-5-yl)ethyl)bicyclo[1.1.1]pentan-1-amine], the IC50 was ≤ 100 nM.
Turning to `CC(c1cc(F)c2[nH]c(-c3nncn3-c3cnccc3C(F)(F)F)nc2c1)n1cccn1` (stereo not shown) [Compound 454, 5-(1-(1H-pyrazol-1-yl)ethyl)-7-fluoro-2-(4-(4-(trifluoromethyl)pyridin-3-yl)-4H-1,2,4-triazol-3-yl)-1H-benzo[d]imidazole], the IC50 was ≤ 100 nM.
Take `CN(CCCC(N)=O)c1cc(F)c2[nH]c(-c3nncn3-c3cnccc3C(F)(F)F)nc2c1` [Compound 455, 4-((4-fluoro-2-(4-(4-(trifluoromethyl)pyridin-3-yl)-4H-1,2,4-triazol-3-yl)-1H-benzo[d]imidazol-6-yl)(methyl)amino)butanamide]: the 50% inhibitory concentration (IC50) is ≤ 100 nM.
On to `Nc1nnc(-c2nc3cc(C(F)(F)F)cc(F)c3[nH]2)n1-c1cnccc1C(F)(F)F` [Compound 456, 5-(7-fluoro-5-(trifluoromethyl)-1H-benzo[d]imidazol-2-yl)-4-(4-(trifluoromethyl)pyridin-3-yl)-4H-1,2,4-triazol-3-amine], for which the IC50 was ≤ 100 nM.
As for `FC(F)(F)c1ccc2[nH]c(-c3nnccc3N3CCOCC3)nc2c1` [Compound 457, 4-(3-(5-(trifluoromethyl)-1H-benzo[d]imidazol-2-yl)pyridazin-4-yl)morpholine], the IC50 lay in the range of 500 to 1000 nM.
For `CCOC(=O)/C=C/c1cccc2[nH]c(-c3nncn3-c3cnccc3C(F)(F)F)nc12` [Compound 459, ethyl (E)-3-(2-(4-(4-(trifluoromethyl)pyridin-3-yl)-4H-1,2,4-triazol-3-yl)-1H-benzo[d]imidazol-4-yl)acrylate], the IC50 lay within 500 to 1000 nM.
Consider `CC(c1ccncc1)c1cc(F)c2[nH]c(-c3nnccc3-c3cnccc3C(F)(F)F)nc2c1` (stereo not shown) [Compound 460, 7-fluoro-5-(1-(pyridin-4-yl)ethyl)-2-(4-(4-(trifluoromethyl)pyridin-3-yl)pyridazin-3-yl)-1H-benzo[d]imidazole], for which the IC50 was ≤ 100 nM.
With `CC(c1ccncc1)c1cc(F)c2[nH]c(-c3nncn3-c3cccc(F)c3Br)nc2c1` (stereo not shown) [Compound 462, 2-(4-(2-bromo-3-fluorophenyl)-4H-1,2,4-triazol-3-yl)-7-fluoro-5-(1-(pyridin-4-yl)ethyl)-1H-benzo[d]imidazole], the IC50 is ≤ 100 nM.
`NC(=O)C(F)(F)c1ccc2[nH]c(-c3nncn3-c3ccc(F)c(F)c3Cl)nc2c1` [Compound 463, 2-(2-(4-(2-chloro-3,4-difluorophenyl)-4H-1,2,4-triazol-3-yl)-1H-benzo[d]imidazol-5-yl)-2,2-difluoroacetamide]: the half-maximal inhibitory concentration (IC50) is ≤ 100 nM.
Then `Fc1cc(C(F)(F)c2ccncc2)cc2nc(-c3nncn3-c3cnccc3C(F)(F)F)[nH]c12` [Compound 464, 6-(difluoro(pyridin-4-yl)methyl)-4-fluoro-2-(4-(4-(trifluoromethyl)pyridin-3-yl)-4H-1,2,4-triazol-3-yl)-1H-benzo[d]imidazole], with ≤ 100 nM; and `CC(Cc1nccs1)c1cc(F)c2[nH]c(-c3nncn3-c3cnccc3C(F)(F)F)nc2c1` (stereo not shown) [Compound 465, 2-(2-(7-fluoro-2-(4-(4-(trifluoromethyl)pyridin-3-yl)-4H-1,2,4-triazol-3-yl)-1H-benzo[d]imidazol-5-yl)propyl)thiazole], with ≤ 100 nM; and `Fc1cc(C2(F)CC2)cc2nc(-c3nnccc3-c3nnccc3C(F)(F)F)[nH]c12` [Compound 466, 7-fluoro-5-(1-fluorocyclopropyl)-2-(4-(trifluoromethyl)-[3,4′-bipyridazin]-3′-yl)-1H-benzo[d]imidazole], with ≤ 100 nM.
Then `Fc1cc(C(F)F)cc2nc(-c3nncn3-c3cnccc3C(F)(F)F)[nH]c12` [Compound 467, 6-(difluoromethyl)-4-fluoro-2-(4-(4-(trifluoromethyl)pyridin-3-yl)-4H-1,2,4-triazol-3-yl)-1H-benzo[d]imidazole], with ≤ 100 nM; and `CC(F)(F)c1cc(F)c2[nH]c(-c3nncn3-c3cnccc3C(F)(F)F)nc2c1` [Compound 468, 6-(1,1-difluoroethyl)-4-fluoro-2-(4-(4-(trifluoromethyl)pyridin-3-yl)-4H-1,2,4-triazol-3-yl)-1H-benzo[d]imidazole], with ≤ 100 nM; and `Cc1ccc2[nH]c(-c3nncn3C3CCCC3)nc2c1` [Example 1, 2-(4-cyclopentyl-4H-1,2,4-triazol-3-yl)-5-methyl-1H-benzo[d]imidazole], with > 1000 nM.
For the compound `Cc1ccc2[nH]c(-c3nncn3-c3cccc(Cl)c3Cl)nc2c1` [Example 5, 2-(4-(2,3-dichlorophenyl)-4H-1,2,4-triazol-3-yl)-5-methyl-1H-benzo[d]imidazole], the IC50 was ≤ 100 nM.
In the case of `FC(F)(F)c1ccc2[nH]c(-c3nncn3-c3cccc(Cl)c3Cl)nc2c1` [Example 15, 2-[4-(2,3-dichlorophenyl)-1,2,4-triazol-3-yl]-5-(trifluoromethyl)-1H-benzimidazole], the IC50 was ≤ 100 nM.
With `Cc1ccc2[nH]c(-c3ncccc3-c3cccc(Cl)c3Cl)nc2c1` [Example 21], the IC50 is > 1000 nM.
As to `Cc1ccc2[nH]c(-c3ccncc3-c3cccc(Cl)c3Cl)nc2c1` [Example 22], the concentration for half-maximal inhibition (IC50) was 500 to 1000 nM.
Regarding `Cc1ccc2[nH]c(-c3cnccc3-c3cccc(Cl)c3Cl)nc2c1` [Example 23], the IC50 is ≤ 100 nM.
In the case of `Cc1ccc2[nH]c(-c3c(-c4cccc(Cl)c4Cl)cnn3C)nc2c1` [Example 34], the IC50 is > 1000 nM.
